Reference: US10202413B2, “Neuroactive enantiomeric 15-, 16- and 17-substituted steroids as modulators for GABA type-A receptors” (priority 2013, dated 2019)
Where two headings read alike, the source gives them in different places. Marks after values point to notes of the source that are not given here.

Assays:
[1] = biological target: picrotoxin binding site on GABAA receptors; experiment: [35S]-TBPS displacement (inhibition of [35S]-TBPS binding); details: non-competitive displacement of [35S]-TBPS; ± standard error of the mean
Procedure: The IC50 values for the compounds of the examples as non-competitive displacers of [^35S]-TBPS from the picrotoxin binding site on GABAA receptors are reported in Table 1.
Results presented are from duplicate experiments performed in triplicate. Error limits are calculated as standard error of the mean. Methods used are known in the art (see, e.g., Jiang, et al., Neurosteroid analogues. 9. Conformationally constrained pregnanes: structure-activity studies of 13,24-cyclo-18,21-dinorcholane analogues of the GABA modulatory and anesthetic steroids (3α,5α)- and (3α,5β)-3-hydroxypregnan-20-one. J. Med. Chem. 2003, 46, 5334-5348).

[2] = biological target: T1, rat α1β2γ2L type GABAA receptors expressed in Xenopus laevis oocytes (Rattus norvegicus, UniProt P18508+P62813+P63138, INS375LLRMFSFK); experiment: Oocyte electrophysiology: potentiation of chloride currents mediated by 2 μM GABA, and direct gating; type: cell-based; details: ± SEM (N≥4); for ratio of currents measured in the presence/absence of added compound, 0.1 μM: 0.1 μM compound; for ratio of currents measured in the presence/absence of added compound, 0.1 μM / ratio of currents measured in the presence/absence of added compound, 1.0 μM / ratio of currents measured in the presence/absence of added compound, 10 μM: 2 μM GABA; for ratio of currents measured in the presence/absence of added compound, 1.0 μM: 1.0 μM compound; for ratio of currents measured in the presence/absence of added compound, 10 μM: 10 μM compound; for (gating) 10 μM: ratio of compound only current/GABA current: direct current gated by 10 μM compound in the absence of GABA
T1 construct: expressed in transfected cells; host or cells: Xenopus laevis oocytes
T1 sequence (P62813 28-455, stated change not applied): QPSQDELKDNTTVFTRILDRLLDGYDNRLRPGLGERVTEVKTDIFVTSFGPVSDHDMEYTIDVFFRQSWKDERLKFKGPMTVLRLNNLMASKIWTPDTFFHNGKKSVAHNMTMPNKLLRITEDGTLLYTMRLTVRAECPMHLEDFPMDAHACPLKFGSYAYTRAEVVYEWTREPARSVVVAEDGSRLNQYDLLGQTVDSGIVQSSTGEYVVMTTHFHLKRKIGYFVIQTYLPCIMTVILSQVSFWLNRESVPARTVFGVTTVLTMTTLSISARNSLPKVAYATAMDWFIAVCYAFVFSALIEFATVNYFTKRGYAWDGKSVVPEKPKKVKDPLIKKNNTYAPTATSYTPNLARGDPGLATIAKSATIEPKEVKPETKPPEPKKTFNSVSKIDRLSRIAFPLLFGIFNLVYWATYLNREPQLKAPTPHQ
T1 sequence (P63138 26-474, stated change not applied): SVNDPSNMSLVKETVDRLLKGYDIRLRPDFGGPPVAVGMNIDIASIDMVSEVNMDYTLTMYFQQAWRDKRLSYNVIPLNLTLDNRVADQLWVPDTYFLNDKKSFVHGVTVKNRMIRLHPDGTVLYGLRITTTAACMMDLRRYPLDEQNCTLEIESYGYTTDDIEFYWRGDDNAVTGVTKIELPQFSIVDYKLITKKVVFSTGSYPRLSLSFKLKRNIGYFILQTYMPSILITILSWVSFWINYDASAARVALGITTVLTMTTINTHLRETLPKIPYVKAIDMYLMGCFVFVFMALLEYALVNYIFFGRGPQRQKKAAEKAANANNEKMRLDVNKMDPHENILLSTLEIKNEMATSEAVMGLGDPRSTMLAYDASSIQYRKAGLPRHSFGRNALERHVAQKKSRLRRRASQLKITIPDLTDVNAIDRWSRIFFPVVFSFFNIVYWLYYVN
T1 sequence (P18508 with tags, fused parts or gaps INS375LLRMFSFK): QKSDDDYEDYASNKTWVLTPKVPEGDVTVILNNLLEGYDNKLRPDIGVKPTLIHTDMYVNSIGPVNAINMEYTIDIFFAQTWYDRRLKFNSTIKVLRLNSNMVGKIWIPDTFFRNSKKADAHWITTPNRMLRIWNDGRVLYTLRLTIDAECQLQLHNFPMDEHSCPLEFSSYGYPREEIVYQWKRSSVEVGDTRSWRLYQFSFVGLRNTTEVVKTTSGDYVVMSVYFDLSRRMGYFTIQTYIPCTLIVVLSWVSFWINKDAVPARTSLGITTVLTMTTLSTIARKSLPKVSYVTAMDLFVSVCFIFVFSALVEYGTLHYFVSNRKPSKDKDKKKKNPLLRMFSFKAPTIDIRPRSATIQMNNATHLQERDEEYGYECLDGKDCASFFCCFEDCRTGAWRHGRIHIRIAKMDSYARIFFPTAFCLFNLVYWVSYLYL
Procedure: The compounds of the present disclosure were evaluated for the ability to potentiate chloride currents mediated by 2 μM GABA at rat α1β2γ2L type GABAA receptors expressed in Xenopus laevis oocytes and the results are shown in Table 2.
The GABA concentration used for the control response was 2 μM. Each compound was evaluated on at least four different oocytes at the concentrations indicated, and the results reported are the ratio of currents measured in the presence/absence of added compound. Gating represents direct current gated by 10 μM compound in the absence of GABA, and this current is reported as the ratio of compound only current/[…] current. Error limits are calculated as standard error of the mean (N≥4). Receptor expression and whole-cell and single-channel recordings were carried out as described previously (see Jiang, et al., Neurosteroid analogues. 9. Conformationally constrained pregnanes: structure-activity studies of 13,24-cyclo-18,21-dinorcholane analogues of the GABA modulatory and anesthetic steroids (3α,5α)- and (3α,5β)-3-hydroxypregnan-20-one. J. Med. Chem. 2003, 46, 5334-5348).

[3] = system: Tadpole; experiment: Tadpole loss of righting (LRR) and loss of swimming (LSR) reflexes; type: in vivo; details: for EC50: ± SEM
Text: Table 3 discloses the anesthetic effects of the compounds of the present disclosure. In particular, the anesthetic effect of the compounds of the present disclosure on Loss of Righting Reflex (LRR) and Loss of Swimming Reflex (LSR).
Methods used are known in the art (see, e.g., Jiang, et al., Neurosteroid analogues. 9. Conformationally constrained pregnanes: structure-activity studies of 13,24-cyclo-18,21-dinorcholane analogues of the GABA modulatory and anesthetic steroids (3α,5α)- and (3α,5β)-3-hydroxypregnan-20-one. J. Med. Chem. 2003, 46, 5334-5348). Error limits are calculated as standard error of the mean (N=10 or more animals at each of five or more different concentrations).

[4] = system: mice; experiment: Mouse duration of anesthesia (LRR) after tail vein injection; type: in vivo
Procedure: The compounds were dissolved in 22.5% aqueous 2-(hydroxypropyl)-β-cyclodextrin. For compound 28, serial dilutions of a 8 mg/kg stock solution with 0.9% saline were made to obtain the lower doses tested.
At a dose of 8 mg/kg, compound MQ-35 caused LRR of about 3 minutes and at a dose of 16 mg/kg duration of LRR was increased to about 7 minutes.
At 4 mg/kg, LRR induced by KK-122 lasted about 5 minutes and at a dose of 8 mg/kg LRR lasted for about 9 minutes. For all three compounds, the onset of anesthesia was immediate (i.e., less than 30 seconds) and recovery was characterized by a rapid progression over 1-2 minutes from an initial return of leg movement followed by righting and subsequent walking around the cage.

[5] = loss of righting reflex, read-out: Tadpole LRR EC50
[6] = loss of swimming reflex, read-out: Tadpole LSR EC50
[7] = concentration of 3 μM, number of 10 tadpoles

Structure (SMILES)	IC50 [1] [nM]	ratio of currents measured in the presence/absence of added compound, 0.1 μM [2]	ratio of currents measured in the presence/absence of added compound, 1.0 μM [2]	ratio of currents measured in the presence/absence of added compound, 10 μM [2]	(gating) 10 μM: ratio of compound only current/GABA current [2]	EC50 [3, 5] [nM]	EC50 [3, 6] [nM]	duration of anesthesia (LRR) ([4]; 8 mg/kg)	duration of anesthesia (LRR) ([4]; 16 mg/kg)	melting point [°C]	tadpoles that lost LRR [3, 7]	tadpoles that lost LSR [3, 7]	duration of anesthesia (LRR) ([4]; 1 mg/kg)	duration of anesthesia (LRR) ([4]; 4 mg/kg)	duration of anesthesia (LRR) ([4]; threshold dose of 2 mg/kg)
C[C@@]12CC[C@@H]3[C@H](CC[C@@H]4C[C@@H](O)CC[C@]43C)[C@H]1CC(=O)C2 [MQ-35, (3β,5β,8α,9β,10α,13α,14β)-3-Hydroxyandrostan-16-one]	81 ± 8	1.42 ± 0.02	7.72 ± 0.39	34.70 ± 1.69	0.15 ± 0.04	550 ± 90	1730 ± 40	about 3 minutes	about 7 minutes	152 to 153	–	–	–	–	–
C[C@]1(O)CC[C@]2(C)[C@H](CC[C@H]3[C@H]2CC[C@@]2(C)C(=O)CC[C@H]32)C1 [KK-23, (3β,5β,8α,9β,10α,13α,14β)-3-Hydroxy-3-methylandrostan-17-one]	185 ± 28	1.11 ± 0.15	3.31 ± 0.43	19.74 ± 5.64	0.09 ± 0.02	930 ± 530	2810 ± 10	–	–	183 to 185	–	–	–	–	–
C[C@@]12CC[C@@H]3[C@H](CC(=O)[C@@H]4C[C@@H](O)CC[C@@]34C)[C@H]1CC(=O)C2 [MQ-124, (3β,5β,8α,9β,10α,13α,14β)-3-Hydroxyandrostane-6,16-dione]	8950 ± 1860	0.68 ± 0.03	0.85 ± 0.03	1.57 ± 0.05	−0.01 ± 0	> 10000	> 10000	–	–	205 to 207	–	–	–	–	–
C[C@@]12CC[C@@H]3[C@H](CC[C@@H]4C[C@@H](O)CC[C@]43C)[C@H]1C[C@@H](C#N)C2 [KK-142, (3β,5β,8α,9β,10α,13α,14β,16α)-3-Hydroxyandrost-16-carbonitrile]	29 ± 3	2.20 ± 0.20	8.83 ± 3.12	13.32 ± 4.54	0.03 ± 0.01	–	–	–	–	206 to 208	10/10^a	10/10^a	–	–	–
CO[C@H]1[C@H]2CC[C@H]3[C@@H](CC[C@@]4(C)C(=O)CC[C@H]34)[C@]2(C)CC[C@@H]1O [KK-117, (3β,4α,5β,8α,9β,10α,13α,14β)-3-Hydroxy-4-methoxyandrostan-17-one]	198 ± 25	1.21 ± 0.02	3.67 ± 0.33	12.21 ± 1.26	0.05 ± 0.03	590 ± 70	2940	–	–	215 to 218	–	–	–	–	–
CC(=O)[C@H]1CC[C@H]2[C@@H]3CC[C@H]4C[C@H](O)CC[C@]4(C)[C@H]3C(=O)C[C@]12C [alphaxalone, reference compound]	–	–	–	–	–	–	–	–	about 4 minutes	–	–	–	–	–	–
CO[C@H]1[C@H]2CC[C@@H]3[C@H]4CC(=O)C[C@]4(C)CC[C@H]3[C@]2(C)CC[C@@H]1O [KK-122, (3β,4α,5β,8α,9β,10α,3α,14β)-3-Hydroxy-4-methoxyandrostan-16-one]	83 ± 11	1.41 ± 0.07	6.48 ± 0.40	16.00 ± 2.21	0.08 ± 0.03	340 ± 400	1730 ± 30	about 9 minutes	–	198 to 200	–	–	no LRR was observed	about 5 minutes	about 1 minute
C[C@@]12CC[C@H]3[C@@H]4CC[C@H](O)C[C@H]4CC[C@@H]3[C@H]1CC(=O)C2 [KK-103]	238 ± 21	0.97 ± 0.02	2.43 ± 0.02	10.52 ± 0.61	0.02 ± 0.01	1160 ± 210	5480 ± 120	–	–	160 to 162	–	–	–	–	–
